Square brackets hold non-standard residues; d marks the D form. Peptide text beside a SMILES is read from it. * marks the point of attachment. Sta = CC(C)C[C@H](N)[C@@H](O)CC(=O)O; NMe2Val = CC(C)[C@@H](C(=O)*)N(C)C; dNMeF = CN[C@H](Cc1ccccc1)C(=O)O; dHiv = CC(C)[C@@H](O)C(=O)O; Hiv = CC(C)[C@H](O)C(=O)O
Columns and labels:
Caspase-9 (Homo sapiens) = Caspase-9 (Homo sapiens) (UniProt P55211); test: Inhibition of caspase 9 assessed as residual activity at 10 uM after 10 to 15 mins by fluorescence assay relative to control
Caspase-2 (Homo sapiens) = Caspase-2 (Homo sapiens) (UniProt P42575); test: Inhibition of caspase 2 assessed as residual activity at 10 uM after 10 to 15 mins by fluorescence assay relative to control
[1] = target: Kallikrein-5 (Homo sapiens) (UniProt Q9Y337); test: Inhibition of kallikrein 5 assessed as residual activity at 10 uM after 10 to 15 mins by fluorescence assay relative to control
Caspase-4 (Homo sapiens) = Caspase-4 (Homo sapiens) (UniProt P49662); test: Inhibition of caspase 4 assessed as residual activity at 10 uM after 10 to 15 mins by fluorescence assay relative to control
[2] = target: Macrophage metalloelastase (Homo sapiens, UniProt P39900); test: Inhibition of MMP12 catalytic domain after 10 to 15 mins by fluorescence assay
Neutrophil collagenase = Neutrophil collagenase (Homo sapiens, UniProt P22894); test: Inhibition of MMP8 assessed as residual activity at 10 uM after 10 to 15 mins by fluorescence assay relative to control
[3] = target: Beta-secretase 1 (Homo sapiens) (UniProt P56817); test: Inhibition of BACE1 assessed as residual activity at 10 uM after 10 to 15 mins by fluorescence assay relative to control
Caspase-7 (Homo sapiens) = Caspase-7 (Homo sapiens) (UniProt P55210); test: Inhibition of caspase 7 assessed as residual activity at 10 uM after 10 to 15 mins by fluorescence assay relative to control
[4] = target: Pro-cathepsin H (Homo sapiens) (UniProt P09668); test: Inhibition of cathepsin H assessed as residual activity at 10 uM after 10 to 15 mins by fluorescence assay relative to control
[5] = target: Tryptase gamma (Homo sapiens) (UniProt Q9NRR2); test: Inhibition of human lung tryptase gamma1 assessed as residual activity at 10 uM after 10 to 15 mins by fluorescence assay relative to control
[6] = target: Urokinase-type plasminogen activator (Homo sapiens) (UniProt P00749); test: Inhibition of urokinase assessed as residual activity at 10 uM after 10 to 15 mins by fluorescence assay relative to control
[7] = target: Serine protease 1 (Bos taurus) (UniProt P00760); test: Inhibition of bovine pancreatic trypsin assessed as residual activity at 10 uM after 10 to 15 mins by fluorescence assay relative to control
[8] = target: Chymotrypsin-like elastase family member 1 (Sus scrofa) (UniProt P00772); test: Inhibition of porcine pancreatic elastase assessed as residual activity at 10 uM after 10 to 15 mins by fluorescence assay relative to control
Stromelysin-2 = Stromelysin-2 (Homo sapiens, UniProt P09238); test: Inhibition of MMP10 assessed as residual activity at 10 uM after 10 to 15 mins by fluorescence assay relative to control
Caspase-6 = Caspase-6 (Homo sapiens, UniProt P55212); test: Inhibition of caspase 6 after 10 to 15 mins by fluorescence assay
Papain (Carica papaya) = Papain (Carica papaya) (UniProt P00784); test: Inhibition of papaya papain assessed as residual activity at 10 uM after 10 to 15 mins by fluorescence assay relative to control
Caspase-10 = Caspase-10 (Homo sapiens, UniProt Q92851); test: Inhibition of caspase 10 after 10 to 15 mins by fluorescence assay
Chymase (Homo sapiens) = Chymase (Homo sapiens) (UniProt P23946); test: Inhibition of chymase assessed as residual activity at 10 uM after 10 to 15 mins by fluorescence assay relative to control
Caspase-9 = Caspase-9 (Homo sapiens, UniProt P55211); test: Inhibition of caspase 9 after 10 to 15 mins by fluorescence assay
Stromelysin-1 = Stromelysin-1 (Homo sapiens, UniProt P08254); test: Inhibition of MMP3 assessed as residual activity at 10 uM after 10 to 15 mins by fluorescence assay relative to control
[9] = target: Dipeptidyl peptidase 9 (Homo sapiens) (UniProt Q86TI2); test: Inhibition of DPP9 assessed as residual activity at 10 uM after 10 to 15 mins by fluorescence assay relative to control
Caspase-1 (Homo sapiens) = Caspase-1 (Homo sapiens) (UniProt P29466); test: Inhibition of caspase 1 assessed as residual activity at 10 uM after 10 to 15 mins by fluorescence assay relative to control
[10] = target: Prothrombin (Homo sapiens) (UniProt P00734); test: Inhibition of thrombin alpha assessed as residual activity at 10 uM after 10 to 15 mins by fluorescence assay relative to control
Caspase-5 (Homo sapiens) = Caspase-5 (Homo sapiens) (UniProt P51878); test: Inhibition of caspase 5 assessed as residual activity at 10 uM after 10 to 15 mins by fluorescence assay relative to control
Caspase-2 = Caspase-2 (Homo sapiens, UniProt P42575); test: Inhibition of caspase 2 after 10 to 15 mins by fluorescence assay
[11] = target: Cathepsin E (Homo sapiens) (UniProt P14091); conditions: 5.08 to 100000 nM
Sequence of Cathepsin E (Homo sapiens) (P14091 whole entry): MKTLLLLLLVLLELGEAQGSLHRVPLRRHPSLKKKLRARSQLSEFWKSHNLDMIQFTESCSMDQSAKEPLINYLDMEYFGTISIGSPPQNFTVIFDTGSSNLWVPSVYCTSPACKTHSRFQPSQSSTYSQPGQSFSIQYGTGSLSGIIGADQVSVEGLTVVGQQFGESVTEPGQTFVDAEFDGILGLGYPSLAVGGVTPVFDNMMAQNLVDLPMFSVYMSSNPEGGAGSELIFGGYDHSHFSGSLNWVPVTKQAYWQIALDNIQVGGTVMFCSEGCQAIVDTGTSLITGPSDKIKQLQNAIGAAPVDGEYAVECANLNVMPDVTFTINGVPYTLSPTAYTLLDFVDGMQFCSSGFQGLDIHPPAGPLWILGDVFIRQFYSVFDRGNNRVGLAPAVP

Sequence of Caspase-9 (P55211 1-315 limits assumed): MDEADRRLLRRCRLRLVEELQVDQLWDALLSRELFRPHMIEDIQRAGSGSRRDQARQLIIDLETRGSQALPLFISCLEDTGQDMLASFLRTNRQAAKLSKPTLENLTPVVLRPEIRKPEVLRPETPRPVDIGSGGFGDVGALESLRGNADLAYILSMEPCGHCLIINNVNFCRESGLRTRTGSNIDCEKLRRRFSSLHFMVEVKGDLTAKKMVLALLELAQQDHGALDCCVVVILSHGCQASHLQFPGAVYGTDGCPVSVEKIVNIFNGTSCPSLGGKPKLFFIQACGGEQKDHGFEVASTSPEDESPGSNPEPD
Sequence of Caspase-9 (P55211 331-416 limits assumed): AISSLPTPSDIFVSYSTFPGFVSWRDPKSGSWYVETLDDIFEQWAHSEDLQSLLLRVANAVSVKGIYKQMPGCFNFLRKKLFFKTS
Sequence of Caspase-9 (Homo sapiens) (P55211 1-315 limits assumed): as the sequence (P55211 1-315 limits assumed) above
Sequence of Caspase-9 (Homo sapiens) (P55211 331-416 limits assumed): as the sequence (P55211 331-416 limits assumed) above
Sequence of Pro-cathepsin H (Homo sapiens) (P09668 116-335 limits assumed, other chains not shown): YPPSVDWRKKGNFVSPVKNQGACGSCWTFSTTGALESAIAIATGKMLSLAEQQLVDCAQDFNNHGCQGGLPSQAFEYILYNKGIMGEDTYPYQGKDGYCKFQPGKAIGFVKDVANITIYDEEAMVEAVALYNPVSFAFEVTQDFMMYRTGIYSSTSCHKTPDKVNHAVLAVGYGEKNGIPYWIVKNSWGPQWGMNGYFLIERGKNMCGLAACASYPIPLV
Sequence of Caspase-6 (P55212 24-179 limits assumed): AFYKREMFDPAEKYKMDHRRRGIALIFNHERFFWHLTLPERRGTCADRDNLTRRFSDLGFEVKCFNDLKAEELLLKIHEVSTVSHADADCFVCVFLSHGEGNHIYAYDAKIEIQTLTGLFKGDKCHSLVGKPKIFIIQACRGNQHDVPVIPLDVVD
Sequence of Caspase-6 (P55212 194-293 limits assumed): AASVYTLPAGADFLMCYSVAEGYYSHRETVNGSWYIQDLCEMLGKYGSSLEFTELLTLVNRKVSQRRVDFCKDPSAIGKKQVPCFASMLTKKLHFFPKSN
Sequence of Macrophage metalloelastase (P39900 whole entry, the tested form may be a part): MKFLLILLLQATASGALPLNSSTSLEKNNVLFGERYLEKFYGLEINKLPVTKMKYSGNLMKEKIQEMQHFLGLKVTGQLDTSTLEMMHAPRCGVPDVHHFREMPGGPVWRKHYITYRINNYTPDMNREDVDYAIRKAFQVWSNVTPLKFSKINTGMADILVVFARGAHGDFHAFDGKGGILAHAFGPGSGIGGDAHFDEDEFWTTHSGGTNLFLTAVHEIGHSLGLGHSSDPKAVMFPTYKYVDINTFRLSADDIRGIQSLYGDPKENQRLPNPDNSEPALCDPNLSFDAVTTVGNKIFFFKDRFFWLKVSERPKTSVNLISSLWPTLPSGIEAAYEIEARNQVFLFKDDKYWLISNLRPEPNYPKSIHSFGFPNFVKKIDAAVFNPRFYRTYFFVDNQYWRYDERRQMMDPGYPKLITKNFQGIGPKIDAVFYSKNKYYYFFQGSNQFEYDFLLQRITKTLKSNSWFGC
Sequence of Beta-secretase 1 (Homo sapiens) (P56817 whole entry): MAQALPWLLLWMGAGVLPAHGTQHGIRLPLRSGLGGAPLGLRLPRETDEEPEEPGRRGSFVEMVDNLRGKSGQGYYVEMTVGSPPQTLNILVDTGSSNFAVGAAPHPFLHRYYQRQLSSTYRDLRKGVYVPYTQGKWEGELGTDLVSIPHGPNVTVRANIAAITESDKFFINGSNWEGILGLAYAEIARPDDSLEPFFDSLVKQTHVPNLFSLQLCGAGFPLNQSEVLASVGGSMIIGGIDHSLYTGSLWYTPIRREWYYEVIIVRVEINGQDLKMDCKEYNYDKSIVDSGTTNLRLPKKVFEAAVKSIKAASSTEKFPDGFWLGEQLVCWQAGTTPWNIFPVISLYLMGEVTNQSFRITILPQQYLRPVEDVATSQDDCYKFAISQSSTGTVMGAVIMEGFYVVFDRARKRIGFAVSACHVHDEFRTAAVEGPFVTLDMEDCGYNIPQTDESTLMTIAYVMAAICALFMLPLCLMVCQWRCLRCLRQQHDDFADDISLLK
Sequence of Kallikrein-5 (Homo sapiens) (Q9Y337 whole entry): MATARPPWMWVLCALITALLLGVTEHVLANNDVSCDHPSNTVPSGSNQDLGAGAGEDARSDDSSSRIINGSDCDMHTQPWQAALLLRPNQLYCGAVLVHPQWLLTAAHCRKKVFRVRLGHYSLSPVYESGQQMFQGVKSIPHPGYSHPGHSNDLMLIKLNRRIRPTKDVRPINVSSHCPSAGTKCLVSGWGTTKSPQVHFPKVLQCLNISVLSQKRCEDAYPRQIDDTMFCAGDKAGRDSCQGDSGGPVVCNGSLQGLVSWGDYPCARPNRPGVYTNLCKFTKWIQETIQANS
Sequence of Stromelysin-2 (P09238 99-476 limits assumed): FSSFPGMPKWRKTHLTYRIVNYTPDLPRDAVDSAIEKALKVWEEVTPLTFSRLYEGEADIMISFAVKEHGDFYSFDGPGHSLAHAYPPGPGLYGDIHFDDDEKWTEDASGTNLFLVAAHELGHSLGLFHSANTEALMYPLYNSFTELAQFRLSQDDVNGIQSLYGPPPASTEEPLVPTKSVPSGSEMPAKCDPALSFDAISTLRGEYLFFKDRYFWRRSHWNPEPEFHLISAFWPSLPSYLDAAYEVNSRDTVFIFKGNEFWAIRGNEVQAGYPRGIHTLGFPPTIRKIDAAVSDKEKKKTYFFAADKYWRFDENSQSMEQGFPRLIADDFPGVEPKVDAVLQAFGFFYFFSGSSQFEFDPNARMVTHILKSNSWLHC
Sequence of Serine protease 1 (Bos taurus) (P00760 whole entry): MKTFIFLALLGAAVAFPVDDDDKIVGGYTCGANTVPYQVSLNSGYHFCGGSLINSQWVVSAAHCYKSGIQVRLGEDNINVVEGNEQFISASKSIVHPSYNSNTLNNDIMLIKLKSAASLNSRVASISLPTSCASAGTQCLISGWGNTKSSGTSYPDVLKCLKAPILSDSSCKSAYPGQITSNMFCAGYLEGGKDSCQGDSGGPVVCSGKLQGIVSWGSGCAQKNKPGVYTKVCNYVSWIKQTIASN
Sequence of Caspase-7 (Homo sapiens) (P55210 24-198 limits assumed): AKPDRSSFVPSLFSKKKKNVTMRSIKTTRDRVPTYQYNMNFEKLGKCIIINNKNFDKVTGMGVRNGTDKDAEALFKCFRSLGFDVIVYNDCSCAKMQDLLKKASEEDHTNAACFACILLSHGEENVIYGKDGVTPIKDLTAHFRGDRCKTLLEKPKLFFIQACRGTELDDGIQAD
Sequence of Caspase-7 (Homo sapiens) (P55210 207-303 limits assumed): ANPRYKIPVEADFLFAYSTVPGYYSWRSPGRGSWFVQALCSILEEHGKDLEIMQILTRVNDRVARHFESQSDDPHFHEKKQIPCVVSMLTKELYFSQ
Sequence of Neutrophil collagenase (P22894 101-467 limits assumed): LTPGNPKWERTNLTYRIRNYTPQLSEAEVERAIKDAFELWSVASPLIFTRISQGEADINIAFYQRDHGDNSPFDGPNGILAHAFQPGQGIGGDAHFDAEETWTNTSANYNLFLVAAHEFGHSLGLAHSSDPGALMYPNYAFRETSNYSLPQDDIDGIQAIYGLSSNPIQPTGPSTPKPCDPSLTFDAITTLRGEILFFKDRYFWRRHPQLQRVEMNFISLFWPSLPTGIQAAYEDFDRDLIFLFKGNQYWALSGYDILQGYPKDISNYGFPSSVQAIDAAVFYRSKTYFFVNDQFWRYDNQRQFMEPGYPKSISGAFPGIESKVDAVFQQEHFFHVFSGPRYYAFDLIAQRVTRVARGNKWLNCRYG
Sequence of Caspase-10 (Q92851 220-415 limits assumed): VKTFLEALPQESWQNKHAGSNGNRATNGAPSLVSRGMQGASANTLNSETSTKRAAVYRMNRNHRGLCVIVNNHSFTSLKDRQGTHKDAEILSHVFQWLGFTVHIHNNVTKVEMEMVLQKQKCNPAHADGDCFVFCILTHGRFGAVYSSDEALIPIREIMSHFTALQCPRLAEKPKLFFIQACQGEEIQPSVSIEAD
Sequence of Caspase-10 (Q92851 416-521 limits assumed): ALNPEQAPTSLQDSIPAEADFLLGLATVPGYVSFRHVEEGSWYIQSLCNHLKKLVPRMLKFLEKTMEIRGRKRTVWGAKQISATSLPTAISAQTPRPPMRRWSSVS
Sequence of Chymase (Homo sapiens) (P23946 whole entry): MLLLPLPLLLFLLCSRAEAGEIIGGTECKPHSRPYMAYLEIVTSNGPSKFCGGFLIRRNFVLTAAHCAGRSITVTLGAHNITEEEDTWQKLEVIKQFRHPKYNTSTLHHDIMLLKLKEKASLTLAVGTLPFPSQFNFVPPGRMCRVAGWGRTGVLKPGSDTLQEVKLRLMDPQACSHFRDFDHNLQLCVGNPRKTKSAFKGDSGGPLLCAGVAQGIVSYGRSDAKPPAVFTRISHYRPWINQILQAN

SMILES: COC(=O)[C@@H]1CCCN1C(=O)[C@@H](Cc1ccccc1)N(C)C(=O)[C@H](C)NC(=O)[C@@H](NC(=O)C[C@H](O)[C@H](CC(C)C)NC(=O)[C@H](CC(N)=O)NC(=O)[C@H](CC(C)C)NC(=O)[C@H](OC(=O)[C@@H](OC(=O)[C@H](C(C)C)N(C)C)C(C)C)C(C)C)[C@@H](C)O [GRASSYSTATIN A] (NMe2Val-[Hiv][dHiv]LN[Sta]TA[dNMeF]P-OMe)
- Activity (Caspase-9 (Homo sapiens)): 78%
- Activity (Caspase-2 (Homo sapiens)): 69%
- Activity [1]: 84%
- Activity (Caspase-4 (Homo sapiens)): 64%
- IC50 [2]: 5 µM
- Activity (Neutrophil collagenase): 70%
- Activity [3]: 100%
- Activity (Caspase-7 (Homo sapiens)): 62%
- Activity [4]: 80%
- Activity [5]: 80%
- Activity [6]: 79%
- Activity [7]: 77%
- Activity [8]: 66%
- Activity (Stromelysin-2): 76%
- IC50 (Caspase-6): 5 µM
- Activity (Papain (Carica papaya)): 101%
- IC50 (Caspase-10): 5 µM
- Activity (Chymase (Homo sapiens)): 90%
- IC50 (Caspase-9): 5 µM
- Activity (Stromelysin-1): 86%
- Activity [9]: 82%
- Activity (Caspase-1 (Homo sapiens)): 90%
- Activity [10]: 86%
- Activity (Caspase-5 (Homo sapiens)): 58%
- IC50 (Caspase-2): 5 µM
- inhibition [11]: tde
